The values that follow are results of earlier work, collected in publication PMC6522624, “Comparison of desferrioxamine and NODAGA for the gallium-68 labeling of exendin-4” (EJNMMI Radiopharmacy and Chemistry, 2019).

For data set [1] the following is noted: in vivo. From the text: Insulinomas generally express highly and specifically the glucagon-like peptide-1 receptor (GLP-1R) as they are of β-cell origin (Reubi and Waser [2003]). GLP-1R is a G-protein coupled receptor of the class B receptor family (Zhang et al. [2017]). […] Dipeptidyl peptidase-4 (DPP4) is responsible for the cleavage of the peptide (Baggio and Drucker [2007]).

The conditions of data set [2]: gallium chelation; ref Šimeček et al. [2011]; Evers et al. [1989]. From the text:
However, their thermodynamic complex formation stability constant (log K) have been reported to be very similar, with 28.65 for DFO and 29.63 for NOTA (Šimeček et al. [2011]; Evers et al. [1989]).

“GLP-1: endogenous peptide ligand of GLP-1R”: the biological half-life entry in data set [1] is recorded as “about 2 min”.

Take `CC(=O)N(O)CCCCCNC(=O)CCC(=O)N(O)CCCCCNC(=O)CCC(=O)N(O)CCCCCN` [DFO, N′-[5-(acetyl-hydroxy-amino)pentyl]-N-[5-[3-(5-aminopentyl-hydroxy-carbamoyl)propanoylamino]pentyl]-N-hydroxy-butane diamide]: the “thermodynamic complex formation stability constant (log K)” value in data set [2] is given as 28.65.

On to `O=C(O)CN1CCN(CC(=O)O)CCN(CC(=O)O)CC1` [NOTA], for which the “thermodynamic complex formation stability constant (log K)” value in data set [2] is listed as 29.63.
